# Measurements reported in ChEMBL document CHEMBL1201862, “PubChem BioAssay data set” (2004).
#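 Exposure lasted 48 hours, with cells grown in 96-well plates and compounds tested at five concentrations. GI50: concentration for 50% inhibition of growth.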 Calls of active or inactive are those of the source. Rule as the data show it: active = GI50 up to about 1.1 µM and inactive = higher.
# How the values were obtained:
# Assay in all cases: NCI anticancer screen, dose series, 48 h
# [1] = test system: 786-0
# [2] = test system: COLO 205
# [3] = test system: SK-OV-3
# [4] = test system: NCI-H522
# [5] = test system: DU-145
# [6] = test system: TK-10
# [7] = test system: SNB-75
# [8] = test system: RPMI-8226
# [9] = test system: NCI-H226
# [10] = test system: HCT-116
# [11] = test system: Hs-578T
# [12] = test system: UACC-257
# [13] = test system: MCF7
# [14] = test system: UO-31
# [15] = test system: M14
# [16] = test system: HCC 2998
# [17] = test system: MOLT-4
# [18] = test system: OVCAR-5
# [19] = test system: SK-MEL-28
# [20] = test system: HL-60
SMILES,GI50 [1],GI50 [2],GI50 [3],GI50 [4],GI50 [5],GI50 [6],GI50 [7],GI50 [8],GI50 [9],GI50 [10],GI50 [11],GI50 [12],GI50 [13],GI50 [14],GI50 [15],GI50 [16],GI50 [17],GI50 [18],GI50 [19],GI50 [20]
CC(=O)OCCCOCn1c(Cc2ccccc2)c(C)c(=O)[nH]c1=O,> 100 µM (inactive),> 100 µM (inactive),> 100 µM (inactive),> 100 µM (inactive),> 100 µM (inactive),> 100 µM (inactive),> 100 µM (inactive),> 100 µM (inactive),> 100 µM (inactive),> 100 µM (inactive),> 100 µM (inactive),> 100 µM (inactive),> 100 µM (inactive),> 100 µM (inactive),> 100 µM (inactive),> 100 µM (inactive),> 100 µM (inactive),> 100 µM (inactive),> 100 µM (inactive),–
COC1=C(C)C(=O)c2c(c(COC(N)=O)c3n2CC2C3N2C)C1=O (stereo not given),< 0.01 µM (active),< 0.0157 µM (active),< 0.0156 µM (active),< 0.0124 µM (active),< 0.01 µM (active),0.0117 µM (active),< 0.0179 µM (active),< 0.0154 µM (active),0.0766 µM (active),< 0.0125 µM (active),0.16 µM (active),< 0.0107 µM (active),< 0.01 µM (active),< 0.0145 µM (active),< 0.01 µM (active),–,< 0.0147 µM (active),0.0313 µM (active),0.0502 µM (active),0.0296 µM (active)
Cc1ccc(SCC(CF)OCn2cc(F)c(=O)[nH]c2=O)cc1 (stereo not given),> 100 µM (inactive),–,> 100 µM (inactive),> 100 µM (inactive),> 100 µM (inactive),> 100 µM (inactive),–,> 100 µM (inactive),–,> 100 µM (inactive),> 100 µM (inactive),> 100 µM (inactive),> 100 µM (inactive),> 100 µM (inactive),> 100 µM (inactive),> 100 µM (inactive),> 100 µM (inactive),> 100 µM (inactive),> 100 µM (inactive),76.9 µM (inactive)
C[C@@H]1CCC2[C@@H](C)C(=O)O[C@@H]3C4C[C@@H]1[C@@]23OO[C@@]4(C)O (stereo not given in full),> 100 µM (inactive),> 100 µM (inactive),–,40.8 µM (inactive),71.4 µM (inactive),> 100 µM (inactive),75.5 µM (inactive),> 100 µM (inactive),–,88.3 µM (inactive),> 100 µM (inactive),> 100 µM (inactive),62.8 µM (inactive),27.9 µM (inactive),> 100 µM (inactive),> 100 µM (inactive),72.1 µM (inactive),> 100 µM (inactive),> 100 µM (inactive),–
CC(=O)Nc1cccc(N2C(=O)/C(=C\c3cccc(Oc4ccccc4)c3)SC2c2ccccc2)c1 (stereo not given),> 100 µM (inactive),68.7 µM (inactive),76 µM (inactive),63.5 µM (inactive),> 100 µM (inactive),97.5 µM (inactive),–,30.3 µM (inactive),> 100 µM (inactive),27 µM (inactive),60 µM (inactive),> 100 µM (inactive),36.4 µM (inactive),47.9 µM (inactive),> 100 µM (inactive),> 100 µM (inactive),26.5 µM (inactive),> 100 µM (inactive),79.1 µM (inactive),36.6 µM (inactive)
COc1ccc(NC(C)c2ccncc2)cc1 (stereo not given),> 100 µM (inactive),> 100 µM (inactive),18 µM (inactive),> 100 µM (inactive),> 100 µM (inactive),> 100 µM (inactive),> 100 µM (inactive),> 100 µM (inactive),> 100 µM (inactive),> 100 µM (inactive),> 100 µM (inactive),> 10 µM (inactive),> 100 µM (inactive),> 100 µM (inactive),> 100 µM (inactive),> 100 µM (inactive),> 100 µM (inactive),> 100 µM (inactive),> 100 µM (inactive),–
COc1ccc(C(=O)/C=C/c2ccc(O)c(O)c2F)c(OC)c1,4.43 µM (inactive),11.5 µM (inactive),9.27 µM (inactive),0.327 µM (active),3.44 µM (inactive),9.18 µM (inactive),7.52 µM (inactive),1.85 µM (inactive),11.4 µM (inactive),4.02 µM (inactive),6.44 µM (inactive),9.08 µM (inactive),0.279 µM (active),2.56 µM (inactive),7.71 µM (inactive),4.07 µM (inactive),1.12 µM (inactive),10.7 µM (inactive),8.11 µM (inactive),–
CC(C)(C)OC(=O)NC(Cc1ccc(OCc2ccccc2)cn1)C(=O)N1CCCC1 (stereo not given),> 100 µM (inactive),68.9 µM (inactive),–,35.3 µM (inactive),> 100 µM (inactive),> 100 µM (inactive),77.3 µM (inactive),54.6 µM (inactive),–,79.3 µM (inactive),> 100 µM (inactive),37.4 µM (inactive),62.1 µM (inactive),> 100 µM (inactive),> 100 µM (inactive),> 100 µM (inactive),34.8 µM (inactive),> 100 µM (inactive),> 100 µM (inactive),49.1 µM (inactive)
O=C1/C(=C\c2cccc(Oc3ccccc3)c2)SC(c2ccccc2)N1Cc1ccccc1 (stereo not given),34.8 µM (inactive),10.3 µM (inactive),19.1 µM (inactive),18.2 µM (inactive),34.9 µM (inactive),32.1 µM (inactive),–,24.3 µM (inactive),22.6 µM (inactive),14.9 µM (inactive),29.1 µM (inactive),26.6 µM (inactive),26.1 µM (inactive),25.7 µM (inactive),22.4 µM (inactive),30.3 µM (inactive),30.1 µM (inactive),57.3 µM (inactive),29.6 µM (inactive),23.3 µM (inactive)
O=C(c1ccccc1)C(C(=O)c1ccccc1)c1nc2ccccc2sc1=O,12.1 µM (inactive),12.5 µM (inactive),6.46 µM (inactive),9.57 µM (inactive),> 25 µM (inactive),16.9 µM (inactive),–,7.18 µM (inactive),7.08 µM (inactive),12 µM (inactive),24.5 µM (inactive),> 25 µM (inactive),12.2 µM (inactive),10.4 µM (inactive),15.8 µM (inactive),23.7 µM (inactive),8.09 µM (inactive),> 25 µM (inactive),> 25 µM (inactive),> 25 µM (inactive)
CN1C(=O)CN(NC(=O)C2=C(O)c3ccc(Br)cc3S(=O)(=O)N2)C1=S,> 100 µM (inactive),> 100 µM (inactive),> 100 µM (inactive),75.7 µM (inactive),> 100 µM (inactive),> 100 µM (inactive),–,> 100 µM (inactive),> 100 µM (inactive),> 100 µM (inactive),> 100 µM (inactive),> 100 µM (inactive),53.7 µM (inactive),> 100 µM (inactive),> 100 µM (inactive),> 100 µM (inactive),> 100 µM (inactive),> 100 µM (inactive),> 100 µM (inactive),33 µM (inactive)
Cc1ccc2c(/C=C/c3ccc(N(C)C)cc3)ccc(C(C)C)cc1-2,> 100 µM (inactive),> 100 µM (inactive),> 100 µM (inactive),99.3 µM (inactive),> 100 µM (inactive),> 100 µM (inactive),> 100 µM (inactive),> 100 µM (inactive),> 100 µM (inactive),> 100 µM (inactive),> 100 µM (inactive),48.9 µM (inactive),> 100 µM (inactive),> 100 µM (inactive),> 100 µM (inactive),–,> 100 µM (inactive),> 100 µM (inactive),> 100 µM (inactive),12.9 µM (inactive)
O=C1OC(=O)C(=C\c2ccc3c(c2)OCO3)/C1=C/c1ccc2c(c1)OCO2,> 100 µM (inactive),> 100 µM (inactive),> 100 µM (inactive),36.1 µM (inactive),> 100 µM (inactive),> 100 µM (inactive),–,> 55.6 µM (inactive),> 93.5 µM (inactive),> 100 µM (inactive),> 88.5 µM (inactive),> 100 µM (inactive),> 100 µM (inactive),> 100 µM (inactive),> 100 µM (inactive),> 100 µM (inactive),37.8 µM (inactive),> 100 µM (inactive),> 100 µM (inactive),44.8 µM (inactive)
Cc1cn(C2CCN(CC3COC(C)(C)O3)O2)c(=O)[nH]c1=O (stereo not given),> 100 µM (inactive),> 100 µM (inactive),> 100 µM (inactive),> 100 µM (inactive),> 100 µM (inactive),> 100 µM (inactive),> 100 µM (inactive),> 100 µM (inactive),> 100 µM (inactive),> 100 µM (inactive),> 100 µM (inactive),> 100 µM (inactive),> 100 µM (inactive),> 100 µM (inactive),> 100 µM (inactive),–,> 100 µM (inactive),> 100 µM (inactive),> 100 µM (inactive),> 100 µM (inactive)
Cc1ccc(S(=O)(=O)N/N=C2/CCCOC2)cc1,> 100 µM (inactive),> 100 µM (inactive),> 100 µM (inactive),> 100 µM (inactive),> 100 µM (inactive),> 100 µM (inactive),–,> 100 µM (inactive),> 100 µM (inactive),> 100 µM (inactive),> 100 µM (inactive),> 100 µM (inactive),> 100 µM (inactive),> 100 µM (inactive),> 100 µM (inactive),> 100 µM (inactive),> 100 µM (inactive),> 100 µM (inactive),> 100 µM (inactive),> 100 µM (inactive)
